Test results taken from PMC5190074, “BET inhibition as a new strategy for the treatment of gastric cancer” (Oncotarget, 2016).

Target: T1, BRD4(1), first bromodomain of BRD4 (Homo sapiens, UniProt O60885)
T1 construct: first bromodomain; BRD4_HUMAN O60884-1 fragment 44-168 (crystallography)
Assay: biochemical
Design: thermal shift assay, SAR of isoxazole compounds against BRD4(1)
Conditions: read-out: ΔTm Shift (oC)
Procedure: The recombinant bromodomains at 2 μM were mixed with 10 μM inhibitors. The assays and data evaluation for melting temperatures were performed using a Real-Time PCR Mx3005p machine (Stratagene) and the protocols previously described. Experiments profiling the final compound (PNZ5) were performed in quadruplicates. Isoxazoles have been explored previously as BET bromodomain inhibitors. We have developed PNZ5, a new isoxazole-based inhibitor originating from the lead compound S1 (Figure 1). PNZ5 was developed as the result of a structure-based lead optimisation program. Dihydroindene S1 was identified as a ligand against BRD4(1) (pIC50 5.9). Investigation of the co-crystal structure of S1 with BRD4(1) [PDB ID 4GPJ] identified a number of positions for potential optimisation: addition of a carbonyl group at C-3 was envisaged to benefit from hydrogen-bonds (H-bonds) to a network of conserved water molecules; replacement of C-2 with a nitrogen would minimise interactions in the narrow ZA channel of BRD4(1) and N-substitution could provide further binding interactions with the protein; and alternative substitution of the hydroxyl at C-1 would provide a handle for further optimisation. […] The three best compounds, S3, S5 and S7, were destined to be separated into their component enantiomers for further evaluation (Supplementary Table 2). […]

## Cc1noc(C)c1-c1ccc2c(c1)C(c1ccccc1)N(C)C2=O (racemic) [S3]
  ΔTm at 10 µM: 10.1 °C
